Measured values taken from US20140039044A1, “Hydroxylated Polymethoxyflavone Compositions” (WLLGEN, INC., priority 2006, published 2014).
Like-named read-outs stand apart in the source and are kept apart here.

Key:
Assay type in all cases: cell-based, human
[1] = tested on: HL-60 cells; assay: Cell survival assay (antiproliferative IC50); conditions: Homo sapiens, HL-60 cells, read-out: Antiproliferative IC50
Description: (§1) Human colon carcinoma COLO205 and HT-29 cell lines (American Type Culture Collection (ATTC), Manassas, Va.) and the leukemia cell line HL-60 were maintained at 37° C. in 5% CO2 air in RPMI 1640 medium supplemented with 10% heat-inactivated fetal bovine serum (Gibco BRL, Grand Island, N.Y.), 100 units/mL penicillin, 100 μg/mL streptomycin and 2 mM 1-glutamine. The human gastric carcinoma AGS cell line (CCRC 60102), obtained from the Food Industry Research and Development Institute (Hsinchu, Taiwan), was maintained as described above, except that DMEM/F 12 was used as the medium rather than the RPMI 1640 medium. The human breast carcinoma MCF-7 cell line MCF-7 (ATTC) was cultured in RPMI 1640 medium supplemented with 5% fetal calf serum at 37° C. in a humidified atmosphere of 5% CO2 in air. The mouse macrophage cell line RAW 264.7 was maintained in RPMI 1640 supplemented with 100 U/ml penicillin, 100 μg/ml streptomycin, and 10% heat-inactivated fetal calf serum.
(§2) Cancer cells (2×10^5) were plated in 12-well Petri dishes. The next day, the medium was changed and treated with different concentration of the test compounds or compositions for 24 h. Where individual compounds were to be tested, stock solutions of the compound was prepared to contain 200 μM of the individual hydroxylated or non-hydroxylated PMF in dimethylsulfoxide (DMSO). Control cells were treated with DMSO to a final concentration of 0.05% (v/v). Depending on the objective of the particular experiment, cells were treating with test compound or composition for 1, 3 or 6 days. At the end of incubation, cells were harvested for cell count using a hemocytometer and measuring the cellular total nucleic acid content with the CyQUANT Cell Proliferation Assay Kit (Molecular Probes).
(§3) 1 N PMF and 6 N PMF compositions containing hydroxylated PMFs, prepared as described in Section 8.3 above, 70% PMF OPE and 5,6,7,8,3′,4′-hexamethoxyflavone (nobiletin) were tested for antiproliferative activity and apoptosis-inducing activity in HL-60, AGS and COLO205 cells as described in Section 8.4 above. Antiproliferative and apoptosis-inducing activities were derived as IC50 values and AC50, values, respectively, where AC50 is the concentration required for 50% apoptosis.
(§4) The PMF compounds were assayed in vitro for cell growth inhibition and for their ability to induce apoptosis in various human cancer cells, including HL-60, AGS, COLO 205, and HT-29 cells, using methods described in Section 8.4 above. Antiproliferative (IC50) and apoptosis-inducing activity (AC50) of PMFs in the HL-60, AGS, COLO 205, and HT-29 cells are reported in Table 9, where *P<0.05, **P<0.01 and ***P<0.001 indicate statistically significant differences from the control group.

[2] = tested on: COLO205 cells; assay: Cell survival assay (antiproliferative IC50); conditions: Homo sapiens, COLO 205, COLO205 cells, read-out: Antiproliferative IC50
Description: as §1, §2, §3, §4

[3] = tested on: AGS cells; assay: Cell survival assay (antiproliferative IC50); conditions: Homo sapiens, AGS cells, read-out: Antiproliferative IC50
Description: as §1, §2, §3, §4

[4] = tested on: COLO205 cells; assay: Cell cycle distribution by flow cytometry; conditions: 24 h; for Cell Cycle Distribution G0/G1 / Cell Cycle Distribution G2/M / Cell Cycle Distribution S: COLO205 cells
Description: (§5) The human cancer cells (2×10^5) were cultured in 60-mm Petri dishes and incubated for 24 h. After treated with test compounds for 24 h, the cells were then harvested, washed with PBS resuspended in 200 μL of PBS, and fixed in 800 μL of iced 100% ethanol at −20° C. After being left to stand overnight, the cell pellets were collected by centrifugation, resuspended in 1 mL of hypotonic buffer (0.5% Triton X-100 in PBS and 0.5 μg/mL RNase) and incubated at 37° C. for 30 min. Next, 1 mL of propidium iodide solution (50 μg/mL) was added, and the mixture was allowed to stand on ice for 30 min. Fluorescence emitted from the propidium iodide-DNA complex was quantitated after excitation of the fluorescent dye by FACScan cytometry (Becton Dickinson, San Jose, Calif.).
(§6) The effects of the hydrolyzed PMF-enriched compositions, nobiletin and 70% PMF OPE on cell cycle distribution were studied, following the procedures described in Section 8.4. Results for cell cycle distribution in HL-60 cells, COLO205 cells and AGS cells are provided in Table 5, Table 6 and Table 7, respectively. […] In HL-60 cells, G2/M arrest predominated in cells treated with 6N PMF concentrations ≧5 μM and with 1N PMF concentrations ≧25 μM.
(§7) Compounds A-K were evaluated in terms of their effects in arresting cell cycle progression by observing cell cycle phase distribution in cells treated with the compounds. Cells were treated with 5, 10, 25, 50, and 100 μM of one of compound A-K or DMSO (control) for 24 h and subjected to flow cytometric analysis after staining their DNA, as described above.
(§8) Similar cell cycle phase distribution studies were performed in AGS, COLO205, and HT-29 cells in response to individual PMFs, with results reported in Tables 11, 12 and 13, respectively.

[5] = tested on: AGS cells; assay: Cell cycle distribution by flow cytometry; conditions: 24 h
Description: as §5, §6, §7, §8

[6] = tested on: HT-29 cells; assay: Cell survival assay (antiproliferative IC50); conditions: Homo sapiens
Description: as §1, §2, §4

SMILES: COc1ccc(-c2cc(=O)c3c(OC)c(OC)c(OC)c(OC)c3o2)cc1OC [Compound A, 5,6,7,8,3′,4′-hexamethoxyflavone, reference compound]
- IC50 ([1]; Table 4): > 100 µg/mL
- IC50 [1]: > 100 µM
- IC50 ([2]; Table 4): 66.7 ± 0.73 µg/mL
- IC50 [2]: 38 ± 1.4 µM
- IC50 ([3]; Table 4): > 100 µg/mL
- IC50 [3]: > 100 µM
- Cell Cycle Distribution G0/G1 ([4]; 5 μM, Table 6): 63.83 ± 0.29
- Cell Cycle Distribution G2/M ([4]; 5 μM, Table 6): 8.25 ± 0.69
- Cell Cycle Distribution S ([4]; 5 μM, Table 6): 27.93 ± 0.98
- Cell Cycle Distribution G0/G1 ([4]; 5 μM, Table 12): 63.63 ± 0.53
- Cell Cycle Distribution G2/M ([4]; 5 μM, Table 12): 1.58 ± 0.04
- Cell Cycle Distribution S ([4]; 5 μM, Table 12): 34.80 ± 0.57
- Cell Cycle Distribution G0/G1 ([4]; 10 μM, Table 6): 71.13 ± 0.65
- Cell Cycle Distribution G2/M ([4]; 10 μM, Table 6): 7.42 ± 0.48
- Cell Cycle Distribution S ([4]; 10 μM, Table 6): 21.45 ± 0.17
- Cell Cycle Distribution G0/G1 ([4]; 10 μM, Table 12): 67.25 ± 0.38
- Cell Cycle Distribution G2/M ([4]; 10 μM, Table 12): 0.25 ± 0.25
- Cell Cycle Distribution S ([4]; 10 μM, Table 12): 32.50 ± 0.13
- Cell Cycle Distribution G0/G1 ([4]; 25 μM, Table 6): 84.21 ± 4.38
- Cell Cycle Distribution G2/M ([4]; 25 μM, Table 6): 4.50 ± 0.35
- Cell Cycle Distribution S ([4]; 25 μM, Table 6): 14.29 ± 0.22
- Cell Cycle Distribution G0/G1 ([4]; 25 μM, Table 12): 69.94 ± 1.02
- Cell Cycle Distribution G2/M ([4]; 25 μM, Table 12): 0.64 ± 0.07
- Cell Cycle Distribution S ([4]; 25 μM, Table 12): 27.42 ± 1.09
- Cell Cycle Distribution G0/G1 ([4]; 50 μM, Table 6): 76.82 ± 1.48
- Cell Cycle Distribution G2/M ([4]; 50 μM, Table 6): 6.30 ± 0.08
- Cell Cycle Distribution S ([4]; 50 μM, Table 6): 16.89 ± 1.39
- Cell Cycle Distribution G0/G1 ([4]; 50 μM, Table 12): 82.40 ± 0.63
- Cell Cycle Distribution G2/M ([4]; 50 μM, Table 12): 0.29 ± 0.08
- Cell Cycle Distribution S ([4]; 50 μM, Table 12): 17.50 ± 0.45
- Cell Cycle Distribution G0/G1 ([4]; 100 μM, Table 6): 77.12 ± 2.00
- Cell Cycle Distribution G2/M ([4]; 100 μM, Table 6): 5.11 ± .46
- Cell Cycle Distribution S ([4]; 100 μM, Table 6): 17.74 ± 2.40
- Cell Cycle Distribution G0/G1 ([4]; 100 μM, Table 12): 65.60 ± 0.65
- Cell Cycle Distribution G2/M ([4]; 100 μM, Table 12): 6.20 ± 1.25
- Cell Cycle Distribution S ([4]; 100 μM, Table 12): 28.21 ± 0.60
- Cell cycle arrest, in words ([4]; COLO 205 cells, compound A 50 μM, compound I 100 μM): trends in G1 arrest
- Cell Cycle Distribution G0/G1 ([5]; 5 μM, Table 7): 58.67 ± 0.61
- Cell Cycle Distribution G2/M ([5]; 5 μM, Table 7): 13.50 ± 1.34
- Cell Cycle Distribution S ([5]; 5 μM, Table 7): 27.84 ± 1.94
- Cell Cycle Distribution G0/G1 ([5]; 5 μM, Table 11): 44.7 ± 0.71
- Cell Cycle Distribution G2/M ([5]; 5 μM, Table 11): 0.4 ± 0.57
- Cell Cycle Distribution S ([5]; 5 μM, Table 11): 54.4 ± 0.64
- Cell Cycle Distribution G0/G1 ([5]; 10 μM, Table 7): 59.74 ± 0.36
- Cell Cycle Distribution G2/M ([5]; 10 μM, Table 7): 13.57 ± 1.23
- Cell Cycle Distribution S ([5]; 10 μM, Table 7): 26.70 ± 0.87
- Cell Cycle Distribution G0/G1 ([5]; 10 μM, Table 11): 47.1 ± 0.28
- Cell Cycle Distribution G2/M ([5]; 10 μM, Table 11): 5.0 ± 0.64
- Cell Cycle Distribution S ([5]; 10 μM, Table 11): 49.1 ± 0.64
- Cell Cycle Distribution G0/G1 ([5]; 25 μM, Table 7): 59.56 ± 1.98
- Cell Cycle Distribution G2/M ([5]; 25 μM, Table 7): 13.50 ± 0.35
- Cell Cycle Distribution S ([5]; 25 μM, Table 7): 26.95 ± 2.33
- Cell Cycle Distribution G0/G1 ([5]; 25 μM, Table 11): 52.9 ± 1.06
- Cell Cycle Distribution G2/M ([5]; 25 μM, Table 11): 2.8 ± 0.35
- Cell Cycle Distribution S ([5]; 25 μM, Table 11): 43.7 ± 0.42
- Cell Cycle Distribution G0/G1 ([5]; 50 μM, Table 7): 56.45 ± 0.03
- Cell Cycle Distribution G2/M ([5]; 50 μM, Table 7): 15.25 ± .33
- Cell Cycle Distribution S ([5]; 50 μM, Table 7): 28.31 ± 0.36
- Cell Cycle Distribution G0/G1 ([5]; 50 μM, Table 11): 53.8 ± 0.64
- Cell Cycle Distribution G2/M ([5]; 50 μM, Table 11): 6.6 ± 0.69
- Cell Cycle Distribution S ([5]; 50 μM, Table 11): 41.3 ± 0.92
- Cell Cycle Distribution G0/G1 ([5]; 100 μM, Table 7): 46.13 ± 4.96
- Cell Cycle Distribution G2/M ([5]; 100 μM, Table 7): 15.54 ± 1.10
- Cell Cycle Distribution S ([5]; 100 μM, Table 7): 28.33 ± 3.86
- Cell Cycle Distribution G0/G1 ([5]; 100 μM, Table 11): 66.9 ± 0.14
- Cell Cycle Distribution G2/M ([5]; 100 μM, Table 11): 3.2 ± 0.57
- Cell Cycle Distribution S ([5]; 100 μM, Table 11): 31.0 ± 0.64
- IC50 [6]: > 100 µM
